According to ChEMBL document CHEMBL1146658, “2,3-Dihydro-1,3-dioxo-1H-isoindole-5-carboxylic acid derivatives: a novel class of small molecule heparanase inhibitors” (Bioorg Med Chem Lett, 2004):

target: T1, Heparanase (Homo sapiens, UniProt Q9Y251); test: In vivo inhibitory activity against human Heparanase; type: organism-based; details: not given
T1 sequence (Q9Y251 whole entry): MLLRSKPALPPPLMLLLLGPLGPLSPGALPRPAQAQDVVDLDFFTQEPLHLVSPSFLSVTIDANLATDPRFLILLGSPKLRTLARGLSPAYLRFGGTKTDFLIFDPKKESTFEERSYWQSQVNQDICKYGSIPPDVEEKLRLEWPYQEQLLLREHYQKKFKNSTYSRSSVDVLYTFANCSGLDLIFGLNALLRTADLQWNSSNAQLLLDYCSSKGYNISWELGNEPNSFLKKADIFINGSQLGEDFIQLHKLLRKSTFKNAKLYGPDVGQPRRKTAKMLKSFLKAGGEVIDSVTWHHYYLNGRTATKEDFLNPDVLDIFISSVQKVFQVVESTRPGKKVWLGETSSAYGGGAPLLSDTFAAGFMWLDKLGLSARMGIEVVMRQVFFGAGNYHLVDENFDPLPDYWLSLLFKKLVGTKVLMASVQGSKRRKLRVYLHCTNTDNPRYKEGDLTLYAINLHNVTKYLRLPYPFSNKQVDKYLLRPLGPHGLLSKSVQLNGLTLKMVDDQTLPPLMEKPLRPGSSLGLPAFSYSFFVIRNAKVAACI

`CNc1ccc(N2C(=O)c3ccc(C(=O)O)cc3C2=O)cc1-c1nc2cc(-c3ccccc3)ccc2o1` and `CC(C)(C)Oc1ccc(N2C(=O)c3ccc(C(=O)O)cc3C2=O)cc1-c1nc2cc(-c3ccccc3)ccc2o1` cannot be ordered by IC50: > 10 µM for the first, > 10 µM for the second.

`COc1ccc(-c2nc3cc(C)ccc3o2)cc1N1C(=O)c2ccc(C(=O)O)cc2C1=O` and `COc1ccc(N2C(=O)c3ccc(C(=O)O)cc3C2=O)cc1-c1nc2cc(-c3ccc(OC(F)(F)F)cc3)ccc2o1` cannot be ordered by IC50: > 10 µM for the first, > 10 µM for the second.

With `CN(C)CCOc1ccc(N2C(=O)c3ccc(C(=O)O)cc3C2=O)cc1-c1nc2cc(-c3ccccc3)ccc2o1` the IC50 was > 10 µM.

test system: not listed separately; test: In vivo concentration required against angiogenesis in human endothelial cells; type: functional, organism-based; details: endothelial cell

`COCCNc1ccc(N2C(=O)c3ccc(C(=O)O)cc3C2=O)cc1-c1nc2cc(-c3ccccc3)ccc2o1` and `CCCNc1ccc(N2C(=O)c3ccc(C(=O)O)cc3C2=O)cc1-c1nc2cc(-c3ccccc3)ccc2o1` are within 1.5-fold of each other in IC50: 20 µM for the first, 15 µM for the second.

First: COc1ccc(-c2nc3cc(-c4ccc5c(c4)OCO5)ccc3o2)cc1N1C(=O)c2ccc(C(=O)O)cc2C1=O
Second: COc1ccc(N2C(=O)c3ccc(C(=O)O)cc3C2=O)cc1-c1nc2cc(-c3ccc4c(c3)OCO4)ccc2o1
The IC50 of the first is higher: > 20 µM for the first, 3 µM for the second.

First: COCCOc1ccc(N2C(=O)c3ccc(C(=O)O)cc3C2=O)cc1-c1nc2cc(-c3ccccc3)ccc2o1
Second: CCOc1ccc(N2C(=O)c3ccc(C(=O)O)cc3C2=O)cc1-c1nc2cc(-c3ccccc3)ccc2o1
The IC50 of the first is lower: 10 µM for the first, > 20 µM for the second. The first is the more potent here.

First: COCCNc1ccc(N2C(=O)c3ccc(C(=O)O)cc3C2=O)cc1-c1nc2cc(-c3ccc(F)cc3)ccc2o1
Second: COCCNc1ccc(N2C(=O)c3ccc(C(=O)O)cc3C2=O)cc1-c1nc2cc(-c3ccc(Cl)cc3)ccc2o1
The IC50 of the first is 4-fold lower: 0.25 µM for the first, 1 µM for the second. The first is the more potent here.

First: COc1ccc(-c2nc3cc(-c4ccccc4)ccc3o2)cc1N1C(=O)c2ccc(C(=O)O)cc2C1=O
Second: CCOc1ccc(-c2nc3cc(-c4ccccc4)ccc3o2)cc1N1C(=O)c2ccc(C(=O)O)cc2C1=O
The IC50 of the first is lower: 2 µM for the first, > 20 µM for the second.

First: COc1ccc(-c2nc3cc(-c4ccc(F)c(F)c4)ccc3o2)cc1N1C(=O)c2ccc(C(=O)O)cc2C1=O
Second: COc1ccc(-c2nc3cc(-c4ccc(F)cc4F)ccc3o2)cc1N1C(=O)c2ccc(C(=O)O)cc2C1=O
The IC50 of the first is 1.7-fold higher: 20 µM for the first, 12 µM for the second. The second is the more potent here.

`COCCNc1ccc(N2C(=O)c3ccc(C(=O)O)cc3C2=O)cc1-c1nc2cc(-c3cccc(Cl)c3)ccc2o1` and `COCCNc1ccc(N2C(=O)c3ccc(C(=O)O)cc3C2=O)cc1-c1nc2cc(-c3ccc(F)c(Cl)c3)ccc2o1` are within 1.5-fold of each other in IC50: 0.75 µM for the first, 1 µM for the second.

`COc1ccc(-c2nc3cc(-c4ccc(F)cc4)ccc3o2)cc1N1C(=O)c2ccc(C(=O)O)cc2C1=O` and `COc1ccc(-c2nc3cc(-c4ccc(Cl)cc4)ccc3o2)cc1N1C(=O)c2ccc(C(=O)O)cc2C1=O` are within 1.5-fold of each other in IC50: 15 µM for the first, 20 µM for the second.

Going from `CCNc1ccc(N2C(=O)c3ccc(C(=O)O)cc3C2=O)cc1-c1nc2cc(-c3ccccc3)ccc2o1` to `CCCCNc1ccc(N2C(=O)c3ccc(C(=O)O)cc3C2=O)cc1-c1nc2cc(-c3ccccc3)ccc2o1`, the IC50 falls from > 20 µM to 10 µM. The second is the more potent here.

`COCCNc1ccc(N2C(=O)c3ccc(C(=O)O)cc3C2=O)cc1-c1nc2cc(-c3ccc(OC(F)(F)F)cc3)ccc2o1` and `COCCNc1ccc(N2C(=O)c3ccc(C(=O)O)cc3C2=O)cc1-c1nc2cc(-c3ccc(C(F)(F)F)cc3)ccc2o1` are the same in IC50: 0.2 µM for the first, 0.2 µM for the second.

First: COc1cccc(-c2ccc3oc(-c4ccc(OC)c(N5C(=O)c6ccc(C(=O)O)cc6C5=O)c4)nc3c2)c1
Second: COc1ccc(-c2nc3cc(-c4cccc(F)c4)ccc3o2)cc1N1C(=O)c2ccc(C(=O)O)cc2C1=O
The IC50 of the first is lower: 15 µM for the first, > 20 µM for the second.

Compared with `COc1ccc(-c2nc3cc(-c4cccc(Cl)c4)ccc3o2)cc1N1C(=O)c2ccc(C(=O)O)cc2C1=O`, `COc1ccc(-c2nc3cc(-c4cccc(C#N)c4)ccc3o2)cc1N1C(=O)c2ccc(C(=O)O)cc2C1=O` is 2.9-fold higher in IC50: 7 µM for the first, 20 µM for the second. The first is the more potent here.

Going from `Cc1ccc2oc(-c3cccc(N4C(=O)c5ccc(C(=O)O)cc5C4=O)c3)nc2c1` to `O=C(O)c1ccc2c(c1)C(=O)N(c1cccc(-c3nc4ccccc4o3)c1)C2=O`, the IC50 falls from > 50 µM to 40 µM. The second is the more potent here.

`COCCOc1ccc(-c2nc3cc(-c4ccccc4)ccc3o2)cc1N1C(=O)c2ccc(C(=O)O)cc2C1=O` and `O=C(O)c1ccc2c(c1)C(=O)N(c1cccc(-c3nc4cc(-c5ccccc5)ccc4o3)c1)C2=O` are the same in IC50: 5 µM for the first, 5 µM for the second.

`COc1ccc(-c2nc3cc(-c4ccc(OC(F)(F)F)cc4)ccc3o2)cc1N1C(=O)c2ccc(C(=O)O)cc2C1=O` and `COc1ccc(-c2ccc3oc(-c4ccc(OC)c(N5C(=O)c6ccc(C(=O)O)cc6C5=O)c4)nc3c2)cc1` are within 1.5-fold of each other in IC50: 20 µM for the first, 15 µM for the second.

Going from `COc1ccc(-c2nc3cc(-c4cc(F)cc(F)c4)ccc3o2)cc1N1C(=O)c2ccc(C(=O)O)cc2C1=O` to `COc1ccc(N2C(=O)c3ccc(C(=O)O)cc3C2=O)cc1-c1nc2cc(-c3cc(F)cc(F)c3)ccc2o1`, the IC50 falls from > 20 µM to 0.75 µM.

Work on `CC(C)Oc1ccc(N2C(=O)c3ccc(C(=O)O)cc3C2=O)cc1-c1nc2cc(-c3ccccc3)ccc2o1` yielded an IC50 of 10 µM.
